Laboratory results from patent publication US20240209061A1, “FUSION PROTEINS AND USES THEREOF” (Pfizer Inc., priority 2020, published 2024).

How the values were obtained:
[1] = system: CT26 murine colorectal carcinoma cells; experiment: CT26 colorectal carcinoma model, combination with αPD1 antibody; type: in vivo, mouse; conditions: for Day 13 tumor volume / % tumor growth inhibition: αPD1 Ab 10 mg/kg where combined; for % tumor growth inhibition: Day 13
Procedure: CT26 murine colorectal carcinoma cells (1×10^6) were subcutaneously implanted in the hind flank of female Balb/c mice. When tumors reached ˜100 mm3 (day 8 after implantation), mice were randomized and dosed with PBS vehicle control, 0.1 mg/kg CD80-D90Q-Fc, and/or 10 mg/kg murine αPD1 antibody. CD80-D90Q-Fc was dosed on Days 0 and 3, αPD1 antibody was dosed on Days 0, 3 and 6. Tumor volume was determined by caliper measurements obtained in 2 dimensions and calculated as width^2×length/2. Error bars are depicted as ±SEM
IFNγ ELIspot was used to measure tumor-reactive T cells in the spleen and TDLNs in mice treated with 1 mg/kg D90Q, αPD1 Ab, or the combination. […] The combination led to an even higher amount of tumor-reactive T cells in the TDLN compared to either agent alone.

[2] = mouse, in vivo, iv, 0.1 mg/kg
Procedure: PK of CD80-Fc fusion proteins was also assessed in transgenic mice expressing the human neonatal Fc receptor (huFcRn) a-chain transgene under the control of its natural human promoter. Female mice were dosed intravenously with CD80-Fc fusion proteins at 0.1 mg/kg, and blood was collected at the timepoints indicated on the graph. Levels of CD80-Fc in mouse plasma were measured as described above.

CD3+ T cells from PBMCs = experiment: Gene expression pattern in primary human T cells (Nanostring); type: cell-based; conditions: with anti-human CD3 antibody; 24 hour
Procedure: 96-well plates were coated overnight with 1 μg/ml of anti-human CD3 antibody (HIT3a clone, BioLegend). The following day, plates were washed 2× with PBS and blocked for 1 hour with 200 μl of complete IMDM (10% FBS, 1% Pen/Strep)/well. Upon removal of the blocking medium, plates were seeded with 250,000 PBMCs derived from three different donors and the following proteins: 1) 1.2 μg/ml CD80-K89D-D90K-T28V-T57V-Fc (concentration associated with max IL-2 production in similar assays), 2) 12 μg/ml CD80-WT-Fc (concentration associated with max IL-2 production in similar assay), and 3) 5 μg/ml anti-human CD28 antibody.
After 24 hour incubation at 37° C. in a CO2 incubator, cells were harvested and stained with viability dye and anti-human CD3 (UCHT1 clone, Biolegend)). Viable CD3+ T cells were flow sorted and used for RNA extraction following Qiagen RNeasy protocol. Isolated RNA was used for a gene expression analysis utilizing Nanostring platform.

human PBMCs (T cells) = experiment: Co-stimulation of primary human T cells with CEFT peptide; type: cell-based
Procedure: Serial, 3-fold dilutions of CD80-K89D-D90K-T28V-T57V-Fc and CD80-WT-Fc were prepared in complete IMDM medium (10% FBS, 1% Pen/Strep). CEFT peptide (PM-CEFT, JPT Peptide Technologies) was reconstituted in the same medium to the final concentration of 1 μg/ml. Frozen human PBMCs were thawed following a standard protocol and 250,000 were seeded per well of flat bottom 96-wells plates. CEFT peptide and appropriate concentration of the CD80-Fc fusion proteins were added to the cell suspension. Plates were sealed with breathable plate sealers and incubated for 72 hours at 37° C. in a CO2 incubator. Six hours prior to cell harvest, culture supernatants were collected and stored at −20° C. until used for cytokine analysis by MSD (V-Plex pro-inflammatory panel human kit, Meso Scale Discovery). At the same time brefeldin A solution was added to the cells, to enable intracellular accumulation of cytokines for evaluation by flow cytometry. Upon harvest, cells were stained for surface (among others CD25) and intracellular markers (among others Ki-67 and IFNγ) following a standard flow cytometry staining protocol. Data was collected using BD LSR Fortessa and analyzed using FlowJo v10 software.

[3] = system: MC38 murine colorectal carcinoma cells; experiment: MC38 murine colorectal carcinoma model, IV and SC dosing; type: in vivo, mouse; conditions: for CD8^+ T cell infiltrates (% CD45): MC38, n=4
Procedure: MC38 murine colorectal carcinoma cells (5×10^5) were subcutaneously implanted in the hind flank of female […] mice. When tumors reach ˜50 mm^3 (day 6 after implantation), mice were randomized. PBS vehicle control or variant CD80-Fc fusion proteins were dosed intravenously (IV) or subcutaneously (SC) with doses ranging from 0.01-3.0 mg/kg on Days 0 and 3. Tumor volume was determined by caliper measurements obtained in 2 dimensions and calculated as width^2×length/2. Error bars are depicted as ±SEM.
Cytotoxic CD8^+ T cells are responsible for killing cancer cells and the measurement of CD8^+ T cells that have infiltrated tumors commonly correlates with efficacy for immune-oncology therapies. For all in vivo studies, tumors were collected ˜1 week after the first dose and dissociated by mincing, followed by incubation in an enzymatic digestion cocktail and homogenization. The resulting cell suspension was filtered and washed, and single cells were stained with antibodies to CD45, CD8, and a viability dye to detect tumor-infiltrating lymphocytes (TILs) by flow cytometry. Data were acquired on a BD LSRFortessa flow cytometer or a Cytek Aurora spectral flow cytometer. Table 31 and FIG. 18 show the amount of tumor-infiltrating CD8+ T cells expressed as a percentage of total immune cells (CD45+). Each value is the average of n=4 mice per group. Treatment with all variant CD80-Fc fusion proteins led to increase in CD8+ TILs in various tumor models.

[4] = system: EMT6 murine breast cancer cells; experiment: EMT6 breast cancer model, combination with talazoparib; type: in vivo, mouse; conditions: for Day 20 tumor volume: talazoparib 0.33 mg/kg daily where combined; for % tumor growth inhibition: Day 20, talazoparib 0.33 mg/kg where combined
Procedure: EMT6murine breast cancer cells (3×10^5) were orthotopically implanted in the mammary fat pad of female Balb/c mice. When tumors reached ˜90 mm^3 (day 5 after implantation), mice were randomized and dosed with PBS vehicle control, CD80-K89Q-D90Q-E23C-A26C-Fc (0.1 or 1 mg/kg), and/or 0.33 mg/kg talazoparib (Tala). CD80-D90Q-Fc was dosed on Days 0 and 3, talazoparib was dosed daily. Tumor volume was determined by caliper measurements obtained in 2 dimensions and calculated as width^2×length/2. Error bars are depicted as ±SEM

[5] = CD80-D90Q-Fc 1 mg/kg and/or αPD1 Ab, n=4 per group
[6] = CEFT peptide, compared with CD80-WT-Fc

Substance: CD80-D90Q-Fc: variant CD80 ECD (D90Q) fused to human IgG1 Fc
- Tumor-reactive T cells (IFNγ ELIspot), Spleen [1, 5]: 881.42
- Tumor-reactive T cells (IFNγ ELIspot), TDLN [1, 5]: 361.08
- Day 13 tumor volume ([1]; CD80-Fc dose 0.1 mg/kg): 776.1 mm^3
- Day 13 tumor volume ([1]; CD80-Fc dose 1 mg/kg): 270.4 mm^3
- % tumor growth inhibition ([1]; CD80-Fc dose 0.1 mg/kg): 61.2%
- % tumor growth inhibition ([1]; CD80-Fc dose 1 mg/kg): 86.5%

Substance: CD80-K89D-D90K-T28V-T57V-Fc: non-cysteine stabilized variant CD80-Fc fusion protein (K89D, D90K, T28V, T57V)
- T1/2 [2]: 106 h
- IL7Rα- and TIGIT-encoding genes relative to anti-human CD3-only baseline, compared to CD80-WT-Fc (CD3+ T cells from PBMCs): greater decrease
- expression level of OX-40-encoding gene relative to CD80-WT-Fc (CD3+ T cells from PBMCs): enhanced
- expression of anti-apoptotic BCL-XL compared to CD80-WT-Fc (CD3+ T cells from PBMCs): enhanced expression
- expression of pro-apoptotic CASP8 compared to CD80-WT-Fc (CD3+ T cells from PBMCs): decreased expression
- gene expression of IL-2, IL-21 and Lymphotoxin Alpha (LTA) compared to CD80-WT-Fc (CD3+ T cells from PBMCs): enhanced gene expression
- increase in CD25 expression of CD8+ T cells (human PBMCs (T cells); [6]): ~30%
- increase in Ki-67 staining (proliferative capacity) of CD8+ T cells (human PBMCs (T cells); [6]): ~30%
- IFNγ production relative to CD80-WT-Fc (human PBMCs (T cells); MSD in cell supernatant): enhanced IFNγ production
- % of IFNγ+CD8+ T cells relative to CD80-WT-Fc (human PBMCs (T cells); flow cytometry): higher % of IFNγ+CD8+ T cells
- % tumor growth inhibition ([3]; Day 15, Intravenous 0.01 mg/kg): 17.9%
- % tumor growth inhibition ([3]; Day 15, Intravenous 0.1 mg/kg): 25.2%
- % tumor growth inhibition ([3]; Day 15, Intravenous 1 mg/kg): 59.9%
- % tumor growth inhibition ([3]; Day 15, Intravenous 3 mg/kg): 83.8%
- % tumor growth inhibition ([3]; Day 15, Subcutaneous 0.01 mg/kg): 11.1%
- % tumor growth inhibition ([3]; Day 15, Subcutaneous 0.1 mg/kg): 27.1%
- % tumor growth inhibition ([3]; Day 15, Subcutaneous 1 mg/kg): 73.7%
- % tumor growth inhibition ([3]; Day 15, Subcutaneous 3 mg/kg): 84.4%
- Day 15 tumor volume ([3]; Intravenous 0.01 mg/kg): 1042.1 mm^3
- Day 15 tumor volume ([3]; Intravenous 0.1 mg/kg): 954.8 mm^3
- Day 15 tumor volume ([3]; Intravenous 1 mg/kg): 535.3 mm^3
- Day 15 tumor volume ([3]; Intravenous 3 mg/kg): 248.1 mm^3
- CD8^+ T cell infiltrates (% CD45) ([3]; 0.01 mg/kg): 6.26 % CD45
- CD8^+ T cell infiltrates (% CD45) ([3]; 0.1 mg/kg): 10.81 % CD45
- CD8^+ T cell infiltrates (% CD45) ([3]; 1 mg/kg): 23.58 % CD45
- Day 15 tumor volume ([3]; Subcutaneous 0.01 mg/kg): 1125.4 mm^3
- Day 15 tumor volume ([3]; Subcutaneous 0.1 mg/kg): 931.7 mm^3
- Day 15 tumor volume ([3]; Subcutaneous 1 mg/kg): 369.7 mm^3
- Day 15 tumor volume ([3]; Subcutaneous 3 mg/kg): 240.9 mm^3

Substance: CD80-K89Q-D90Q-E23C-A26C-Fc: disulfide stabilized variant CD80-Fc fusion protein (K89Q, D90Q, E23C, A26C)
- Day 20 tumor volume ([4]; CD80-Fc dose 0.1 mg/kg): 1149.2 mm^3
- Day 20 tumor volume ([4]; CD80-Fc dose 1 mg/kg): 637.5 mm^3
- % tumor growth inhibition ([4]; CD80-Fc dose 0.1 mg/kg): 43.1%
- % tumor growth inhibition ([4]; CD80-Fc dose 1 mg/kg): 70.5%
- % tumor growth inhibition ([3]; Day 16, Intravenous 0.01 mg/kg): 31.2%
- % tumor growth inhibition ([3]; Day 16, Intravenous 0.1 mg/kg): 37.7%
- % tumor growth inhibition ([3]; Day 16, Intravenous 1 mg/kg): 64.2%
- % tumor growth inhibition ([3]; Day 16, Intravenous 3 mg/kg): 93.0%
- % tumor growth inhibition ([3]; Day 16, Subcutaneous 1.5 mg/kg): 64.2%
- % tumor growth inhibition ([3]; Day 16, Subcutaneous 3 mg/kg): 83.7%
- Day 16 tumor volume ([3]; Intravenous 0.01 mg/kg): 905.1 mm^3
- Day 16 tumor volume ([3]; Intravenous 0.1 mg/kg): 824.7 mm^3
- Day 16 tumor volume ([3]; Intravenous 1 mg/kg): 495.3 mm^3
- Day 16 tumor volume ([3]; Intravenous 3 mg/kg): 138.9 mm^3
- CD8^+ T cell infiltrates (% CD45) ([3]; 0.01 mg/kg): 9.8 % CD45
- CD8^+ T cell infiltrates (% CD45) ([3]; 0.1 mg/kg): 24.5 % CD45
- CD8^+ T cell infiltrates (% CD45) ([3]; 1 mg/kg): 24.6 % CD45
- CD8^+ T cell infiltrates (% CD45) ([3]; 3 mg/kg): 41.3 % CD45
- Day 16 tumor volume ([3]; Subcutaneous 1.5 mg/kg): 495.6 mm^3
- Day 16 tumor volume ([3]; Subcutaneous 3 mg/kg): 252.2 mm^3
